# Measured values published in patent US9532983B2, “Benzofuran compounds, compositions, kits and/or methods thereof” (Savannah State University, priority 2013, dated 2017).
# Experiments:
# [1] = molecular target: T1, 5HT3 (Homo sapiens, UniProt P46098); assay: Secondary binding assay, Ki determination: 5HT3
# T1 construct: expressed in transfected cells
# T1 sequence (P46098 24-478): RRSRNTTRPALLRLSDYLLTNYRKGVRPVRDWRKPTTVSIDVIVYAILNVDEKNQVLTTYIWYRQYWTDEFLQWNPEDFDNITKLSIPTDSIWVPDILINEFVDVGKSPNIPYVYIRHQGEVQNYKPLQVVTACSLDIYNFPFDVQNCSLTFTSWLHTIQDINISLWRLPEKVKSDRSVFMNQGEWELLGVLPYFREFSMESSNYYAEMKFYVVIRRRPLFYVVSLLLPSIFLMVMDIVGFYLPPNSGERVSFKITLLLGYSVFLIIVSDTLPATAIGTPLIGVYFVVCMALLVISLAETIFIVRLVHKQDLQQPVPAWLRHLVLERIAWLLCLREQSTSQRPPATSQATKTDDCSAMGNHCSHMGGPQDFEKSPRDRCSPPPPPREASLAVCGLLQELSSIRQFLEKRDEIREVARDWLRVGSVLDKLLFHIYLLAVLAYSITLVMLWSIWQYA
# [2] = tested on: non-sigma receptors; assay: Binding screen against panel of non-sigma receptors (overall statement)
# Procedure: Initial primary binding screening assays were performed using a 50 μM (initial)−10 μM (final) assay concentration of reference and test compounds.
Structure (SMILES),Ki [1],affinity at non-sigma receptors selected for secondary binding assay (in words) [2],selectivity for sigma receptors (σ1 and σ2) over non-sigma receptors (in words) [2]
"COc1cc2oc(C(=O)N(CCCN3CCCCC3)c3ccccc3)c(C)c2cc1OC [KSCM-1, 5,6-Dimethoxy-3-methyl-N-phenyl-N-(3-(piperidin-1-yl)propyl)benzofuran-2-carboxamide]",7610 nM,–,–
"COc1ccc2c(C)c(C(=O)N(CCCN3CCCCC3)c3ccccc3)oc2c1 [KSCM-11, 6-Methoxy-3-methyl-N-phenyl-N-(3-(piperidin-1-yl)propyl)benzofuran-2-carboxamide]",–,no significant affinity,have the desired selectivity for sigma receptors
